# Experimental data published in ChEMBL document CHEMBL1201862, “PubChem BioAssay data set” (2004).
# The source made the active and inactive calls.
# Columns and labels:
# [1] = CellTiter-Glo luminescence survival assay, SW480 colon tumor line, concentration-response curve, half-maximal inhibitory concentration (AID 1117338); assay type: functional
# [2] = RKO cell viability reduction, dose response, CellTiter-Glo luminescence (AID 1117322); assay type: functional
# [3] = cytotoxicity toward Colo320 cells – cell-based, CellTiter-Glo luminescence, IC50, dose response (AID 1117334); assay type: functional; conditions: COLO 320
# [4] = rise of 4N DNA cells, HeLa – IC50, dose response (AID 1117351); assay type: functional, cell-based
# [5] = Reduced DLD-1 viability, concentration-response, CellTiter-Glo luminescence (AID 1117352); assay type: functional
# [6] = HCT116 cell viability decrease, GSK3B pretreatment – CellTiter-Glo, IC50, dose response (AID 1117339); assay type: functional; conditions: HCT-116
# [7] = cytotoxicity toward HCT116 cells – cell-based, CellTiter-Glo luminescence, IC50, dose response (AID 1117332); assay type: functional; conditions: HCT-116
# [8] = SNU-C1 cell viability reduction, dose response, CellTiter-Glo luminescence (AID 1117323); assay type: functional, cell-based
# [9] = cytotoxicity toward HT-29 cells – cell-based, CellTiter-Glo luminescence, IC50, dose response (AID 1117330); assay type: functional
# [10] = biological target: Dual specificity tyrosine-phosphorylation-regulated kinase 1A (Rattus norvegicus, UniProt Q63470); assay type: biochemical, Homo sapiens
# [11] = biological target: T1, Rac GTPase-activating protein 1 (Homo sapiens, UniProt Q9H0H5); assay: blockers of MgcRacGAP-driven Rac1 GTP hydrolysis – biochemical, ADP Hunter fluorescence, primary and confirmatory, confirmation (AID 624330); assay type: functional
# T1 sequence (Q9H0H5 whole entry): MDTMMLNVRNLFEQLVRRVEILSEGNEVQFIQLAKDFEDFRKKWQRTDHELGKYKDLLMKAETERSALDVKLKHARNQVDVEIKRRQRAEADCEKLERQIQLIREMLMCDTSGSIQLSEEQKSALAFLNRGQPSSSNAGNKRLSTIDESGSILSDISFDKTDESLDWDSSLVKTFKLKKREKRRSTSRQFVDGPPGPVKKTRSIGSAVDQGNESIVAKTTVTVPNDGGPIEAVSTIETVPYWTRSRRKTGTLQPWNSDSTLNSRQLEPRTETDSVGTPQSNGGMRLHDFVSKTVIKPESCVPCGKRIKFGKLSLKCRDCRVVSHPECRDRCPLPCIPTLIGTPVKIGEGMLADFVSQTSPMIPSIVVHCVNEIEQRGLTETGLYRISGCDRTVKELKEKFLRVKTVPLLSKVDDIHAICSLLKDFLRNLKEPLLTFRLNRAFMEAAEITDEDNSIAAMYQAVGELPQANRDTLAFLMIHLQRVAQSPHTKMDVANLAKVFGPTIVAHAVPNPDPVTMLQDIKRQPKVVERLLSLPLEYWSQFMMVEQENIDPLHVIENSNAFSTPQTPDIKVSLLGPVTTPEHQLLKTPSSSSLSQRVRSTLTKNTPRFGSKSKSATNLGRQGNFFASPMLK
# [12] = biological target: T2, Oxysterols receptor LXR-beta (Homo sapiens, UniProt P55055); assay type: functional, cell-based;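 further: Cell-based luminescence dose-response assay of agonist activity at LXR, run as a confirmatory counterscreen to a daf-12 agonist screen; agonist potency from rising luciferase signal of a Gal4-LXR reporter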
# T2 sequence (P55055 whole entry): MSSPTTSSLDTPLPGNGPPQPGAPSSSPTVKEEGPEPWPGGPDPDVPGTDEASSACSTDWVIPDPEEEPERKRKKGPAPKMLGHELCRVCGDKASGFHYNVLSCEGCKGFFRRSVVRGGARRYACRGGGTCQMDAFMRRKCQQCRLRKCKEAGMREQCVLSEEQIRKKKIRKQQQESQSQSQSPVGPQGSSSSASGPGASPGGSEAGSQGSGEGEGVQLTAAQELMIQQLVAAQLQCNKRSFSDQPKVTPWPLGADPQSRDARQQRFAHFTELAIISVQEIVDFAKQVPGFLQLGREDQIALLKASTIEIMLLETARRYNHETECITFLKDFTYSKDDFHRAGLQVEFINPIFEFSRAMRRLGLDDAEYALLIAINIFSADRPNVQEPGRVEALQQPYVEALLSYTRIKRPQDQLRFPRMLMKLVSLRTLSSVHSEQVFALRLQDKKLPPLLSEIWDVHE
# [13] = cells
# [14] = biological target: G-protein coupled receptor 183 (Homo sapiens, UniProt P32249); assay: SAR confirmation of small molecule antagonists of the EBI2 receptor via a luminescent beta-arrestin assa.; assay type: functional
# [15] = Luminescence-based cell-based high throughput dose response assay to identify activators of the DAF-12 from the parasite S. stercoralis (ssDAF-12).; assay type: functional
# [16] = biological target: T2, Oxysterols receptor LXR-beta; assay: LXR agonists, Gal4 luciferase reporter, dose response, counter-screen for ssDAF-12 agonist project, cell-based, luminescence, HEK293, S. stercoralis campaign (AID 720737); assay type: functional; conditions: read-out: IC50 (the source's name)
# [17] = biological target: T3, Fibrinogen beta chain (Homo sapiens, UniProt P02675); assay: Fluorescence polarization-based biochemical high throughput dose response assay to identify inhibitors that disrupt the binding of a cyclic peptide (Tn6) to the fibrin proteolytic product D-Dimer and fragment E complex [DD(E )].
# [18] = biological target: T3, Fibrinogen beta chain; assay: Fluorescence polarization-based biochemical high throughput dose response assay to identify inhibitors that disrupt the binding of a cyclic peptide (Tn7) to the fibrin proteolytic product D-Dimer and fragment E complex [DD(E )].
# T3 sequence (P02675 whole entry, the tested form may be a part): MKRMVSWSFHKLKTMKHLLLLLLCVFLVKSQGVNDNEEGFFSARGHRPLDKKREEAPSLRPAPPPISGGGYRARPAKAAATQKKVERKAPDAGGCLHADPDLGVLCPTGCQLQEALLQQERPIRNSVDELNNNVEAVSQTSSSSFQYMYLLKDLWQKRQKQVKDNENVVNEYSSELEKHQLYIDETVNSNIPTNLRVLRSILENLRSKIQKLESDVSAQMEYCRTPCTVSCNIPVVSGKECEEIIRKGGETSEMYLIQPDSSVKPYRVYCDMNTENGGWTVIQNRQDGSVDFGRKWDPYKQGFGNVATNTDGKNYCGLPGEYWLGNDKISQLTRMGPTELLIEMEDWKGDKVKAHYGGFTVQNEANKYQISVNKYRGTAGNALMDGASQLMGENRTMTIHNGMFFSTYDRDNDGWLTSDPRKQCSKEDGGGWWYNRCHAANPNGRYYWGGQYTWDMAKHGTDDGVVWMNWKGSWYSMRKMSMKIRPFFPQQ
# Sequence of G-protein coupled receptor 183 (P32249 whole entry): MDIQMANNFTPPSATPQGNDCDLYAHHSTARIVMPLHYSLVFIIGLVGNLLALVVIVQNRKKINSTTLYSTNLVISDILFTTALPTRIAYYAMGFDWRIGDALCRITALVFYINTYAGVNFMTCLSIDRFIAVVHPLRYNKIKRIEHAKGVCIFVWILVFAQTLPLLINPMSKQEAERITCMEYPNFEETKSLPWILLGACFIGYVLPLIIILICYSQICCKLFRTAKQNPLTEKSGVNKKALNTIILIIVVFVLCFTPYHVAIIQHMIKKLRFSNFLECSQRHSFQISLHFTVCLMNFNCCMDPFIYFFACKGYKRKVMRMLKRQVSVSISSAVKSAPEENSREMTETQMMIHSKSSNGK
structure (smiles),measurement,setting,value
COc1cccc2c1C(=O)c1c(O)c3c(c(O)c1C2=O)C[C@@](O)(C(=O)CO)CC3OC1CC(N2CCOC(OC)C2)C(O)C(C)O1 (stereo partly drawn),IC50,[1],0.001 µM (active)
same,IC50,[2],0.001 µM (active)
same,IC50,[3],0.001 µM (active)
same,IC50,[4],> 10 µM (inactive)
same,IC50,[5],0.001 µM (active)
same,IC50,[6],0.001 µM (active)
CC(CC=O)CCCC(C)(C)O (stereo not drawn),IC50,[1],> 20 µM (inactive)
same,IC50,[2],> 20 µM (inactive)
same,IC50,[7],> 20 µM (inactive)
same,IC50,[8],> 20 µM (inactive)
same,IC50,[3],> 20 µM (inactive)
same,IC50,[9],> 20 µM (inactive)
same,IC50,[5],> 20 µM (inactive)
same,IC50,[6],> 20 µM (inactive)
CSc1nc(/C=C2\C=Nc3ccccc32)c(O)[nH]1,AC50,[10],7.28 µM (active)
same,IC50,[11],35.9 µM (active)
same,EC50,[12],> 67.6 µM (inactive)
same,EC50,[13],> 67.6 µM (inactive)
CCOc1ccc(/C=C/C(=O)N2CCN(S(=O)(=O)c3ccc(Br)cc3)CC2)cc1,IC50,[14],0.0143 µM (active)
Oc1ccc(N=Nc2ccccc2)o1,IC50,[15],> 67.6 µM (inactive)
same,EC50,[16],> 67.6 µM (inactive)
CCOC(=O)N1CCN(Cc2nc(-c3ccc(C)cc3)no2)CC1,IC50,[17],> 83.3 µM (inactive)
same,IC50,[18],> 27.8 µM (inactive)
